Test results as given in US9573970B2, “4-{4-[(1E)-4-(2,9-diazaspiro[5.5]undec-2-yl)but-1-en-1-yl]-2-methylbenzyl}-5-(propan-2-yl)-1H-pyrazol-3-yl beta-D glucopyranoside acetate” (Eli Lilly and Company, priority 2013, dated 2017).

Target: T1, human SGLT2 (Homo sapiens, UniProt P31639)
T1 sequence (P31639 1-672): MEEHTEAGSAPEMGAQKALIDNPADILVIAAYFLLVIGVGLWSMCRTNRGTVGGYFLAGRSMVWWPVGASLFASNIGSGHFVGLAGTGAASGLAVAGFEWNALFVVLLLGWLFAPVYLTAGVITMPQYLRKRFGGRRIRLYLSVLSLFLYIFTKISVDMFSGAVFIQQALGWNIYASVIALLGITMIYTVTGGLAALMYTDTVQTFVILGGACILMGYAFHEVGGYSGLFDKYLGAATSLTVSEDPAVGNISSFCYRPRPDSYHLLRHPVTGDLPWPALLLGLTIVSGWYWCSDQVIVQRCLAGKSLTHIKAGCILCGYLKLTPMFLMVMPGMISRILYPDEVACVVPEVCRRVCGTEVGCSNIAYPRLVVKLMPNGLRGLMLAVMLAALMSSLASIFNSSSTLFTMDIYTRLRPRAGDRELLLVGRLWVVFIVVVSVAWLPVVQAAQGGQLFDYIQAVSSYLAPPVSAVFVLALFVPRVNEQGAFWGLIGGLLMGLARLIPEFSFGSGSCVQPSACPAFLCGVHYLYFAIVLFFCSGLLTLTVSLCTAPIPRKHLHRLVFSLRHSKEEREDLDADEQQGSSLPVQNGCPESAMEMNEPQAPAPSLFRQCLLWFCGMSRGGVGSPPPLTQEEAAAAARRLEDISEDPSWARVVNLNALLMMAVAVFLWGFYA
Assay: Sodium-dependent 14C-AMG uptake in CHO-K1 cells expressing human SGLT2
Format: cell-based
Settings: n = 10
From the text: The cDNA encoding human SGLT1 (slc5a1, NM_000343), human SGLT2 (slc5a2, NM_003041) and mouse SGLT1 (slc5a1, NM_019810.4) are purchased from Openbiosystems, Invitrogen and Openbiosystems, respectively. The cDNA is cloned into pcDNA3.1+ for mammalian expression and is stably transfected into Chinese hamster ovary (CHO)-K1 cells using standard mammalian transfection procedures. An SGLT-expressing sub-clone of each over-expressing cell line is selected based on resistance to neomycin (Geneticin, Invitrogen) and activity in the ^14C-α-methyl-D-glucopyranoside (^14C-AMG) uptake assay (see below). Stable SGLT-expressing cells are maintained using standard cell culture techniques.
The SGLT activity is measured as sodium-dependent ^14C-AMG uptake in the above cell lines described as follows. One hundred μL of culture medium containing 30,000 cells are seeded to each well of a 96-well BioCoat poly-D-lysine plate (Becton Dickson) and cultured at 37° C. overnight. The culture medium is aspirated and cells are washed twice with 200 μL of Reaction Buffer (140 mM NaCl, 2 mM KCl, 1 mM CaCl2, MgCl2, and 14 mM N-2-hydroethylpiperrazine-N′-2-ethanesulfonic acid (Hepes), pH 7.5). The excess buffer is tapped out onto paper towels. Thirty-five μL of Reaction Buffer are added to each well. […] After mixing, the scintillation signal in the plate is counted in a MicroBeta (PerkinElmer). […]

IC50: 6.1 ± 1.2 µM
Structure (SMILES): Cc1cc(/C=C/CCN2CCCC3(CCNCC3)C2)ccc1Cc1c(O[C@@H]2O[C@H](CO)[C@@H](O)[C@H](O)[C@H]2O)n[nH]c1C(C)C [Example 1 (free base), 4-{4-[(1E)-4-(2,9-diazaspiro[5.5]undec-2-yl)but-1-en-1-yl]-2-methylbenzyl}-5-(propan-2-yl)-1H-pyrazol-3-yl beta-D-glucopyranoside]
